Experiments:
[1] = tested on: cucumber chitinase protein; test: Cucumber chitinase ELISA in transgenic plants carrying cucumber chitinase genomic constructs after leaf treatment; format: in vivo, tobacco; parameters: key: —: Indicates that sample has no detectable level of chitinase protein
Procedure: Once the transgenic plants are transferred to soil, they are grown 4-5 weeks before treatment. The following solutions are applied to the leaves with sterile paintbrushes:
3. Methyl benzo-1,2,3-thiadiazole-7-carboxylate. The solution is made by resuspending a wettable powder containing a formulation of the chemical with 25% active ingredient in sterile water at a concentration of 1 mg/ml.
4. Methyl 2,6-dichloroisonicotinate, prepared as above. Alternatively, 30 ul of 10 mM sodium phosphate buffer, pH 7.0, or 30 ul of the same buffer containing tobacco mosaic virus (50-100 pfu/30 ul) is applied to the leaves which have been sprinkled with carborundum. The buffers are distributed over the whole treated leaf by gentle rubbing.
The plants are allowed to continue to grow for seven days. The treated leaves are then harvested, frozen in liquid nitrogen and stored at −80° C. until they are assayed.
Frozen leaf tissue is ground in a mortar with a pestle in the presence of liquid nitrogen to produce a fine powder. 0.33 g of each tissue sample is added to 1 ml extraction buffer (50 mM Tris-HCl, pH 8.5, 0.2M 2-mercaptoethanol, 2 mM phenyl methyl sulfonyl fluoride, 2 mM benzamidine, 10 mM epsilon-aminocaproic acid, 1 mM leueptine) and the sample homogenized for one minute with an Ultra Turrax Mixer (shaft #S25N-8G, Tekmar Co. Cincinnati, Ohio). The samples are then centrifuged at 48,000×g for fifteen minutes at 4° C. and the supernatant removed from the pelleted material. The extracts are diluted at least 1:50 in ELISA diluent (101 mM sodium phosphate, pH 7.4, 140 mM sodium chloride, 0.05% Tween 20, 0.02% sodium azide, 1% BSA).
A microtiter plate is coated with monoclonal antibody specific to the cucumber chitinase protein at 2 ug/ml in borate-buffered saline (100 mM boric acid, 25mM sodium borate, 75 mM sodium chloride; pH 8.5) using 50 ul per well. The plate is incubated overnight at 4° C. The plate is washed with ELISA wash buffer (10 mM Tris-HCl, pH 8.0, 0.05% Tween 20, 3 mM sodium azide) and BSA blocking solution (10 mM sodium phosphate, pH 7.4, 140 mM sodium chloride, 0.02% sodium azide, 1% BSA) is added to completely cover each well. Incubation is for at least 30 minutes at room temperature.
The microtiter plate is washed with ELISA wash buffer and 50 ul of extract is added to the appropriate well. 50 ul of each of 10 chitinase protein standards (ranging from 0 ng/ml to 31.64 ng/ml) was also added to the appropriate well and the plate is incubated for two hours at 4° C. The plate is washed with ELISA wash buffer and 50 ul of rabbit polyclonal antibody to the cucumber chitainase protein (diluted 1:15,000 in ELISA diluent) is added to the well and incubated for one hour at 37° C. After washing with ELISA wash buffer, 50 ul of goat anti-rabbit conjugated to alkaline phosphatase (1:500 in ELISA diluent) is added to each well and incubated at 37° C. for one hour. The plate is then washed and 50 ul alkaline phosphatase substrate solution (0.6 mg/ml p-nitrophenyl phosphate in 0.5 mM magnesium chloride and 10% diethanolamine) is added to each well. After a 30 minute incubation at room temperature, 50 ul of 3N sodium hydroxide is added to each well to stop the reaction.
The plate is read at 405 nm and 492 nm on an HP Genenchem ELISA plate reader. The output values are expressed as A(405 nm)-A(492 nm)−0.092 to allow for correction of p-nitrophenyl phosphate as substrate. The chitinase standards for each plate are graphed logarithmically. The amount of chitinase protein in each sample is determined from the standard curve. If the amount of chitinase in any sample is close to the upper limit of the curve, the sample is assayed again at a greater dilution. Final results are expressed in the table below in ug chitinase per gram tissue.

[2] = tested on: chemically regulatable chimeric genes coding for GUS, AHAS or BT; test: Primer extension assay for mRNA of chemically regulatable chimeric genes; format: in vivo; details: callus or regenerated plant material from transgenic plants; level proportional to amount of regulator applied
In short: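 Plant material was harvested after chemical induction, and total RNA was annealed to a radiolabeled probe (70° C. for 10 minutes, then slow cooling to 37° C. overnight). Reverse transcriptase extension ran for 30 minutes at 37° C. Products were resolved on a 6% sequencing gel and visualized by autoradiography.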

O=C(O)c1ccccc1O [Salicylic acid, salicylic acid]
ELISA ASSAY RESULTS (ug chitinase/g tissue) ([1]; line Bam-1 (2001/BamChit), leaves harvested after seven days, water 0.066, buffer —): — | ELISA ASSAY RESULTS (ug chitinase/g tissue) ([1]; line Bam-3 (2001/BamChit), seven days, water —, buffer —): — | ELISA ASSAY RESULTS (ug chitinase/g tissue) ([1]; line Bam-4 (2001/BamChit), seven days, water —, buffer —): — | ELISA ASSAY RESULTS (ug chitinase/g tissue) ([1]; line Bam-8 (2001/BamChit), seven days, water —, buffer —): — | ELISA ASSAY RESULTS (ug chitinase/g tissue) ([1]; line Bam-9 (2001/BamChit), seven days, water —, buffer —): 0.522 ug chitinase/g tissue | ELISA ASSAY RESULTS (ug chitinase/g tissue) ([1]; line Bam-10 (2001/BamChit), seven days, water 0.059, buffer 0.084): 0.093 ug chitinase/g tissue | ELISA ASSAY RESULTS (ug chitinase/g tissue) ([1]; line Bam-12 (2001/BamChit), seven days, water —, buffer —): — | ELISA ASSAY RESULTS (ug chitinase/g tissue) ([1]; line Bam-14 (2001/BamChit), seven days, water —, buffer —): — | ELISA ASSAY RESULTS (ug chitinase/g tissue) ([1]; line Bam-15 (2001/BamChit), seven days, water —, buffer —): — | ELISA ASSAY RESULTS (ug chitinase/g tissue) ([1]; line Bam-16 (2001/BamChit), seven days, water —, buffer —): 0.690 ug chitinase/g tissue | ELISA ASSAY RESULTS (ug chitinase/g tissue) ([1]; line Bam-17 (2001/BamChit), seven days, water —, buffer —): — | ELISA ASSAY RESULTS (ug chitinase/g tissue) ([1]; line Bam-19 (2001/BamChit), seven days, water —, buffer —): 0.760 ug chitinase/g tissue | ELISA ASSAY RESULTS (ug chitinase/g tissue) ([1]; line Bam-21 (2001/BamChit), seven days, water —, buffer —): — | ELISA ASSAY RESULTS (ug chitinase/g tissue) ([1]; line Bam-23 (2001/BamChit), seven days, water —, buffer —): — | ELISA ASSAY RESULTS (ug chitinase/g tissue) ([1]; line Bam-24 (2001/BamChit), seven days, water —, buffer —): — | ELISA ASSAY RESULTS (ug chitinase/g tissue) ([1]; line Bam-25 (2001/BamChit), seven days, water —, buffer —): 0.522 ug chitinase/g tissue | ELISA ASSAY RESULTS (ug chitinase/g tissue) ([1]; line Bam-26 (2001/BamChit), seven days, water —, buffer —): — | ELISA ASSAY RESULTS (ug chitinase/g tissue) ([1]; line Nco-2 (2001/NcoChit), seven days, water —, buffer —): — | ELISA ASSAY RESULTS (ug chitinase/g tissue) ([1]; line Nco-3 (2001/NcoChit), seven days, water —, buffer —): — | ELISA ASSAY RESULTS (ug chitinase/g tissue) ([1]; line Nco-5 (2001/NcoChit), seven days, water —, buffer —): — | ELISA ASSAY RESULTS (ug chitinase/g tissue) ([1]; line Nco-8 (2001/NcoChit), seven days, water —, buffer —): — | ELISA ASSAY RESULTS (ug chitinase/g tissue) ([1]; line Nco-9 (2001/NcoChit), seven days, water —, buffer —): — | ELISA ASSAY RESULTS (ug chitinase/g tissue) ([1]; line Nco-10 (2001/NcoChit), seven days, water —, buffer —): — | ELISA ASSAY RESULTS (ug chitinase/g tissue) ([1]; line Nco-11 (2001/NcoChit), seven days, water —, buffer —): — | ELISA ASSAY RESULTS (ug chitinase/g tissue) ([1]; line Nco-15 (2001/NcoChit), seven days, water —, buffer —): — | ELISA ASSAY RESULTS (ug chitinase/g tissue) ([1]; line Nco-16 (2001/NcoChit), seven days, water 0.555, buffer 0.566): 0.555 ug chitinase/g tissue | ELISA ASSAY RESULTS (ug chitinase/g tissue) ([1]; line Nco-17 (2001/NcoChit), seven days, water —, buffer —): — | ELISA ASSAY RESULTS (ug chitinase/g tissue) ([1]; line Sal-2 (2001/SalChit), seven days, water —, buffer —): — | ELISA ASSAY RESULTS (ug chitinase/g tissue) ([1]; line Sal-3 (2001/SalChit), seven days, water —, buffer —): — | ELISA ASSAY RESULTS (ug chitinase/g tissue) ([1]; line Sal-4 (2001/SalChit), seven days, water —, buffer —): 0.047 ug chitinase/g tissue | ELISA ASSAY RESULTS (ug chitinase/g tissue) ([1]; line Sal-5 (2001/SalChit), seven days, water —, buffer —): — | ELISA ASSAY RESULTS (ug chitinase/g tissue) ([1]; line Sal-7 (2001/SalChit), seven days, water —, buffer —): — | ELISA ASSAY RESULTS (ug chitinase/g tissue) ([1]; line Sal-8 (2001/SalChit), seven days, water —, buffer —): — | ELISA ASSAY RESULTS (ug chitinase/g tissue) ([1]; line Sal-9 (2001/SalChit), seven days, water —, buffer —): 1.052 ug chitinase/g tissue | ELISA ASSAY RESULTS (ug chitinase/g tissue) ([1]; line Sal-11 (2001/SalChit), seven days, water —, buffer —): — | ELISA ASSAY RESULTS (ug chitinase/g tissue) ([1]; line Sal-12 (2001/SalChit), seven days, water —, buffer —): — | ELISA ASSAY RESULTS (ug chitinase/g tissue) ([1]; line Sal-13 (2001/SalChit), seven days, water —, buffer —): — | ELISA ASSAY RESULTS (ug chitinase/g tissue) ([1]; line Sal-14 (2001/SalChit), seven days, water —, buffer —): — | ELISA ASSAY RESULTS (ug chitinase/g tissue) ([1]; line Sal-15 (2001/SalChit), seven days, water —, buffer —): — | level of mRNA of the chimeric gene (GUS, AHAS or BT primer), primer extension assay [2]: elevated levels of mRNA

— patent US6632981B1, “DNA sequences encoding polypeptides having beta-1,3-glucanase activity” (Novartis Finance Corporation, priority 1988, dated 2003)
